Test results taken from US9376442B2, “Methylpyrrolopyrimidinecarboxamides” (Takeda GmbH, priority 2009, dated 2016).

Target: T1, PDE5A1 (Homo sapiens, UniProt O76074)
T1 construct: from tissue; host or cells: human platelets from fresh donor blood (10,000 x g supernatant of sonicated lysate)
Test: Inhibition of type 5 phosphodiesterase (PDE5) activity, modified SPA test with human platelet lysate
Assay type: biochemical
Conditions: 0.5 μM cGMP, read-out: PDE5A1 inhibitory values [measured as −log IC50 (mol/l)] (converted)
Method in brief: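 Enzyme source is lysate from human platelets (10,000 g supernatant). Compound preincubated 5 min at 37° C in Tris pH 7.4 containing 1 μM motapizone and 10 nM of a PDE2 inhibitor. Reaction started with 0.5 μM cGMP ([3H] tracer) and run 15 min; SPA read-out, IC50 by non-linear regression.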

| Compound | IC50 |
| --- | --- |
| COc1cc(-c2ncnc3c(C(=O)N[C@H]4CC[C@@H](NC(C)=O)CC4)c(C)[nH]c23)c(OCC2CC2)cc1F [Example E110, N-(cis-4-Acetamidocyclohexyl)-4-[2-(cyclopropylmethoxy)-4-fluoro-5-methoxyphenyl]-6-methyl-5H-pyrrolo[3,2-d]pyrimidine-7-carboxamide] | < 1 nM |
| COCC(=O)N1CC[C@@H](NC(=O)c2c(C)[nH]c3c(-c4ccc(F)cc4OCC4CC4)ncnc23)C1 [Example E30, 4-[2-(Cyclopropylmethoxy)-4-fluorophenyl]-N-[(3R)-1-(methoxyacetyl)pyrrolidin-3-yl]-6-methyl-5H-pyrrolo[3,2-d]pyrimidine-7-carboxamide] | < 1 nM |
| CCC(=O)N1CCC(NC(=O)c2c(C)[nH]c3c(-c4cc(C)c(F)cc4OCC4CC4)ncnc23)CC1 [Example E120, 4-[2-(Cyclopropylmethoxy)-4-fluoro-5-methylphenyl]-6-methyl-N-(1-propanoylpiperidin-4-yl)-5H-pyrrolo[3,2-d]pyrimidine-7-carboxamide] | < 1 nM |
| COc1cc(OCC2CC2)c(-c2ncnc3c(C(=O)NC4CCN(C(C)=O)CC4)c(C)[nH]c23)cc1F [Example E131, N-(1-Acetylpiperidin-4-yl)-4-[2-(cyclopropylmethoxy)-5-fluoro-4-methoxyphenyl]-6-methyl-5H-pyrrolo[3,2-d]pyrimidine-7-carboxamide] | < 1 nM |
| CCC(=O)N1CCC(NC(=O)c2c(C)[nH]c3c(-c4c(OCC5CC5)ccc5c4OCO5)ncnc23)CC1 [Example E2, 4-[5-(Cyclopropylmethoxy)-1,3-benzodioxol-4-yl]-6-methyl-N-(1-propionylpiperidin-4-yl)-5H-pyrrolo[3,2-d]pyrimidine-7-carboxamide] | < 1 nM |
| COCC(=O)N1CCC(NC(=O)c2c(C)[nH]c3c(-c4cc(F)c(OC)cc4OCC4CC4)ncnc23)CC1 [Example E133, 4-[2-(Cyclopropylmethoxy)-5-fluoro-4-methoxyphenyl]-N-[1-(methoxyacetyl)piperidin-4-yl]-6-methyl-5H-pyrrolo[3,2-d]pyrimidine-7-carboxamide] | < 1 nM |
| CCOc1ccc(C(F)(F)F)cc1-c1ncnc2c(C(=O)NC3CCN(C(=O)COC)CC3)c(C)[nH]c12 [Example E101, 4-[2-Ethoxy-5-(trifluoromethyl)phenyl]-N-[1-(methoxyacetyl)piperidin-4-yl]-6-methyl-5H-pyrrolo[3,2-d]pyrimidine-7-carboxamide] | < 1 nM |
| COCC(=O)N[C@H]1CC[C@@H](NC(=O)c2c(C)[nH]c3c(-c4cc(C(C)C)ccc4OCC4CC4)ncnc23)CC1 [Example E162, 4-[2-(Cyclopropylmethoxy)-5-(propan-2-yl)phenyl]-N-{cis-4-[(methoxyacetyl)amino]cyclohexyl}-6-methyl-5H-pyrrolo[3,2-d]pyrimidine-7-carboxamide] | 1 to 10 nM |
| CCC(=O)N1CCC(NC(=O)c2c(C)[nH]c3c(-c4cc(OC)c(F)cc4OCC4CC4)ncnc23)CC1 [Example E103, 4-[2-(cyclopropylmethoxy)-4-fluoro-5-methoxyphenyl]-6-methyl-N-(1-propionylpiperidin-4-yl)-5H-pyrrolo[3,2-d]pyrimidine-7-carboxamide] | < 1 nM |
| COc1cc(-c2ncnc3c(C(=O)N[C@@H]4CCN(C(C)=O)C4)c(C)[nH]c23)c(OCC2CC2)cc1F [Example E179, N-[(3R)-1-Acetylpyrrolidin-3-yl]-4-[2-(cyclopropylmethoxy)-4-fluoro-5-methoxyphenyl]-6-methyl-5H-pyrrolo[3,2-d]pyrimidine-7-carboxamide] | < 1 nM |
| CC(=O)N1CCC(NC(=O)c2c(C)[nH]c3c(-c4ccc(F)cc4OCC4CC4)ncnc23)CC1 [Example E19, N-(1-acetylpiperidin-4-yl)-4-[2-(cyclopropylmethoxy)-4-fluorophenyl]-6-methyl-5H-pyrrolo[3,2-d]pyrimidine-7-carboxamide] | < 1 nM |
| CCC(=O)N1C[C@@H](O)[C@H](NC(=O)c2c(C)[nH]c3c(-c4cc(F)c(OC)cc4OCC4CC4)ncnc23)C1 (relative stereo) [Example E190, 4-[2-(Cyclopropylmethoxy)-5-fluoro-4-methoxyphenyl]-N-[(3R*,4R*)-4-hydroxy-1-propionylpyrrolidin-3-yl]-6-methyl-5H-pyrrolo[3,2-d]pyrimidine-7-carboxamide] | < 1 nM |
| COCC(=O)N1CC[C@@H](NC(=O)c2c(C)[nH]c3c(-c4cc(OC)ccc4OCC4CC4)ncnc23)[C@H](O)C1 (relative stereo) [Example E80, 4-[2-(Cyclopropylmethoxy)-5-methoxyphenyl]-N-[(3R*,4R*)-3-hydroxy-1-(methoxyacetyl)piperidin-4-yl]-6-methyl-5H-pyrrolo[3,2-d]pyrimidine-7-carboxamide] | 1 to 10 nM |
| CCC(=O)N1CC[C@@H](NC(=O)c2c(C)[nH]c3c(-c4cc(C)c(F)cc4OCC4CC4)ncnc23)[C@H](O)C1 (relative stereo) [Example E129, 4-[2-(cyclopropylmethoxy)-4-fluoro-5-methylphenyl]-N-[(3R*,4R*)-3-hydroxy-1-propanoylpiperidin-4-yl]-6-methyl-5H-pyrrolo[3,2-d]pyrimidine-7-carboxamide] | < 1 nM |
| CCC(=O)N1CC[C@@H](NC(=O)c2c(C)[nH]c3c(-c4cc(OC)ccc4OCC4CC4)ncnc23)C1 [Example E76, 4-[2-(Cyclopropylmethoxy)-5-methoxyphenyl]-6-methyl-N-[(3R)-1-propionylpyrrolidin-3-yl]-5H-pyrrolo[3,2-d]pyrimidine-7-carboxamide] | < 1 nM |
| COCC(=O)N1CCC(NC(=O)c2c(C)[nH]c3c(-c4cc(C)c(F)cc4OCC4CC4)ncnc23)CC1 [Example E121, 4-[2-(Cyclopropylmethoxy)-4-fluoro-5-methylphenyl]-N-[1-(methoxyacetyl)piperidin-4-yl]-6-methyl-5H-pyrrolo[3,2-d]pyrimidine-7-carboxamide] | < 1 nM |
| COc1cc(-c2ncnc3c(C(=O)N[C@H]4CN(C(C)=O)CC[C@@H]4O)c(C)[nH]c23)c(OCC2CC2)cc1F (relative stereo) [Example E116, N-[(3S*,4S*)-1-Acetyl-4-hydroxypiperidin-3-yl]-4-[2-(cyclopropylmethoxy)-4-fluoro-5-methoxyphenyl]-6-methyl-5H-pyrrolo[3,2-d]pyrimidine-7-carboxamide] | < 1 nM |

Further lines, results first:

| IC50 | Compound |
| --- | --- |
| < 1 nM | Cc1[nH]c2c(-c3ccc(F)cc3OCC3CC3)ncnc2c1C(=O)N[C@@H]1CCN(C(=O)[C@H](C)O)C1 [Example F18, 4-[2-(cyclopropylmethoxy)-4-fluorophenyl]-N-{(3R)-1-[(2S)-2-hydroxypropanoyl]pyrrolidin-3-yl}-6-methyl-5H-pyrrolo[3,2-d]pyrimidine-7-carboxamide] |
| < 1 nM | COc1cc(-c2ncnc3c(C(=O)N[C@H]4CC[C@H](NC(=O)[C@H](C)O)CC4)c(C)[nH]c23)c(OCC2CC2)cc1F [Example F68, 4-[2-(Cyclopropylmethoxy)-4-fluoro-5-methoxyphenyl]-N-(trans-4-{[(2S)-2-hydroxypropanoyl]amino}cyclohexyl)-6-methyl-5H-pyrrolo[3,2-d]pyrimidine-7-carboxamide] |
| < 1 nM | Cc1[nH]c2c(-c3c(OCC4CC4)ccc4c3OCO4)ncnc2c1C(=O)N[C@H]1CC[C@@H](NC(=O)CO)CC1 [Example F5, 4-[5-(Cyclopropylmethoxy)-1,3-benzodioxol-4-yl]-N-[cis-4-(glycoloylamino)cyclohexyl]-6-methyl-5H-pyrrolo[3,2-d]pyrimidine-7-carboxamide] |
| < 1 nM | COc1cc(-c2ncnc3c(C(=O)N[C@H]4CC[C@@H](NC(=O)CO)CC4)c(C)[nH]c23)c(OCC2CC2)cc1F [Example F69, 4-[2-(Cyclopropylmethoxy)-4-fluoro-5-methoxyphenyl]-N-[cis-4-(glycoloylamino)cyclohexyl]-6-methyl-5H-pyrrolo[3,2-d]pyrimidine-7-carboxamide] |
| < 1 nM | CC(=O)c1ccc(OCC2CC2)c(-c2ncnc3c(C(=O)NC4CCN(C(=O)[C@H](C)O)CC4)c(C)[nH]c23)c1 [Example F103, 4-[5-Acetyl-2-(cyclopropylmethoxy)phenyl]-N-{1-[(2S)-2-hydroxypropanoyl]piperidin-4-yl}-6-methyl-5H-pyrrolo[3,2-d]pyrimidine-7-carboxamide] |
| < 1 nM | COc1cc(-c2ncnc3c(C(=O)N[C@@H]4CCN(C(=O)CO)C4)c(C)[nH]c23)c(OCC2CC2)cc1F [Example F111, 4-[2-(Cyclopropylmethoxy)-4-fluoro-5-methoxyphenyl]-N-[(3R)-1-glycoloylpyrrolidin-3-yl]-6-methyl-5H-pyrrolo[3,2-d]pyrimidine-7-carboxamide] |
| 1 to 10 nM | COc1ccc(OCC2CC2)c(-c2ncnc3c(C(=O)N[C@@H]4CN(C(=O)CO)C[C@H]4O)c(C)[nH]c23)c1 (relative stereo) [Example F119, 4-[2-(Cyclopropylmethoxy)-5-methoxyphenyl]-N-[(3R*,4R*)-1-glycoloyl-4-hydroxypyrrolidin-3-yl]-6-methyl-5H-pyrrolo[3,2-d]pyrimidine-7-carboxamide] |
| < 1 nM | COc1cc(OCC2CC2)c(-c2ncnc3c(C(=O)N[C@@H]4CN(C(=O)CO)C[C@H]4O)c(C)[nH]c23)cc1F (relative stereo) [Example F117, 4-[2-(Cyclopropylmethoxy)-5-fluoro-4-methoxyphenyl]-N-[(3R*,4R*)-1-glycoloyl-4-hydroxypyrrolidin-3-yl]-6-methyl-5H-pyrrolo[3,2-d]pyrimidine-7-carboxamide] |
| < 1 nM | Cc1[nH]c2c(-c3c(OCC4CC4)ccc4c3OCO4)ncnc2c1C(=O)N[C@H]1CC[C@H](NC(=O)CO)CC1 [Example F3, 4-[5-(Cyclopropylmethoxy)-1,3-benzodioxol-4-yl]-N-[trans-4-(glycoloylamino)cyclohexyl]-6-methyl-5H-pyrrolo[3,2-d]pyrimidine-7-carboxamide] |
